{
  "source": "patent US12712053B2",
  "about": "“Determining the stability of a substance or substance mixture” (BIONORICA SE, priority 2022, dated 2026)",
  "key": {"HEK295 cells": {"test_system": "HEK295 cells", "conditions": "for Main test: maximum Euclidian distance: NIR, plateau value of curve fit", "text": "The subject of the investigation was: • HEK295 cells, provided by Microbify, in a concentration of 2.2*10^5 cells/ml in medium, grown confluently, i.e. adherently grown cells that have formed a continuous monolayer/cell layer, in the NIR measuring vessels with transflectance stamp made of stainless steel from BrukerOptics • Use of nutrient medium DMEM (Dulbecco's Modified Eagle's Medium), with high glucose content, HEPES buffer, without phenol red indicator. Medium was purchased ready-to-use from ThermoFisher, catalog number 21063045, and mixed with 10% fetal calf serum (v/v) and 1% penicillin-streptomycin solution (v/v). • Cell culture for 48 hours before measurement directly in the measuring vessel • Addition of several concentrations of ethanol: 0% (control), 3%, 6% (each v/v). […] Before the experiment began, the cells were confluent, i.e. 100% viable • Measurement of cell changes via NIR over a period of […]\nThe measuring instrument used was a near-infrared spectroscopy device microPHAZIR GP (Thermo Fisher Scientific Inc.) with a wave number range: 6266 cm^−1 to 4172 cm^−1\nData pretreatment of the NIR spectra: No special pretreatment was carried out, spectra were processed directly.\nThe following calculation parameters were chosen: Euclidean distance\nThe cells were removed from the incubator and treated with a chemical stress factor (ethanol) at the concentrations mentioned. Three independent replicates were prepared with 0%, 3% and 6% ethanol and in a narrow measured at intervals of time (every 2 minutes) over a total period of 6 hours via NIR.\nFrom the measured spectra, the Euclidean distances were calculated according to the method of the invention, averaged per measurement time and the fitting of kinetic curves (cf. Application example 3; identical procedure). […] The data points are the mean values of 3 independent replicates, each measured 3 times, thus there are 9 measurement points per point. The error bars are the standard error of the mean. Also shown are the determination points for Km (time at which 50% of the plateau value was reached), K90 (time at which 90% of the plateau value was reached), and K95 (time at which 95% of the plateau value was reached)."}, "in vitro": {"experiment": "in vitro", "conditions": "human, HEK295 cells"}},
  "note": "Read-outs that look alike come from different tables or passages of the source.",
  "data": [
    {"smiles": "CCO", "note": "[ethanol]", "values": [
      {"measurement": "Km (time at which 50% of the plateau value was reached)", "setting": "HEK295 cells; 3% EtOH", "result": "~ 13 min"},
      {"measurement": "Main test: maximum Euclidian distance", "setting": "HEK295 cells; 3% ethanol (v/v)", "result": 0.194},
      {"measurement": "Km (time at which 50% of the plateau value was reached)", "setting": "HEK295 cells; 6% EtOH", "result": "~ 11 min"},
      {"measurement": "Main test: maximum Euclidian distance", "setting": "HEK295 cells; 6% ethanol (v/v)", "result": 0.272},
      {"measurement": "viability at 2.5 % ethanol", "setting": "in vitro", "result": 68, "unit": "%"},
      {"measurement": "viability at 3 % ethanol", "setting": "in vitro", "result": 70.8, "unit": "%"},
      {"measurement": "viability at 5 % ethanol", "setting": "in vitro", "result": 65.5, "unit": "%"},
      {"measurement": "viability at 6 % ethanol", "setting": "in vitro", "result": 41.4, "unit": "%"},
      {"measurement": "viability at 7.5 % ethanol", "setting": "in vitro", "result": 22.5, "unit": "%"},
      {"measurement": "viability at 10 % ethanol", "setting": "in vitro", "result": 0, "unit": "%"}
    ]}
  ]
}
